How the values were obtained:
[1] = system: Total ATXN3 (tATXN3) protein; test: Endogenous Total ATXN3 (tATXN3) Protein Assay (MSD immunoassay of cell lysates); assay type: cell-based; conditions: cells incubated with compound 48 h; 7-point concentration curve; MSD detection in cell lysate
Experimental: Endogenous Total ATXN3 (tATXN3) Protein Assay
Meso Scale Discovery (MSD) 96-well or 384-well plates were coated overnight at 4° C. with Ataxin 3 mouse monoclonal antibody (Invitrogen, MA3-082) at a concentration of 0.5 μg/mL in PBS (30 μL per well). Plates were then washed three times with 300 μL wash buffer (0.05% TWEEN®-20, polyethylene glycol sorbitan monolaurate, in PBS) and blocked (Meso Scale Diagnostics, R93BA-1; 5% BSA in PBS) for 2 h at room temperature with rotational shaking and then washed three times with wash buffer.
(§1) Test compounds were serially diluted 3.16-fold in 100% DMSO to generate a 7-point concentration curve. Aliquots of 0.5 μL of diluted compounds were transferred to a 96-well flat bottom plate by a liquid handler. An aliquot of 0.5 μL DMSO was also transferred to separate wells and used as controls. Duplicate samples were set up for each compound concentration and for the DMSO control.
Cells were thawed and incubated in cell culture media (DMEM, 10% FBS, and 1% antibiotic cocktail) for 72 h. Cells were trypsinized, counted, and re-suspended to a concentration of 100,000 cells/mL in cell culture media. A 100 μL aliquot of the cell suspensions were plated at 10,000 cells per well in the compound containing 96 well microtiter plate and incubated for in a cell culture incubator (37° C., 5% CO2, 100% relative humidity). After 48 h, the medium was removed and 50-100 μL of lysis buffer (Meso Scale Diagnostics, R60TX-2) containing 1× halt protease inhibitor cocktail of (Thermo Scientific, Halt™ Protease Inhibitor Cocktail, 78430) per well was added to cells to provide a “cell lysate”. The plate was placed on a shaker at 4° C. for 30 minutes, then stored at −80° C.
Cell lysate samples (25 μL) were transferred to the antibody-coated MSD plate and incubated overnight at 4° C. After removal of the lysates, the plate was washed three times with wash buffer, and 25 μL of Ataxin 3 recombinant rabbit monoclonal antibody (Invitrogen, #702788) secondary antibody (diluted to 0.25 μg/mL in 0.05% TWEEN®-20 in blocking buffer) was added to each well and incubated with shaking for 1-2 h at room temperature. Following incubation with the secondary antibody, the wells were rinsed with wash buffer and then […] Anti Rabbit Antibody Goat SULFO-TAG Labeled (Meso Scale Diagnostics, R32AB-1) detecting antibody (diluted to 0.25 μg/mL in 0.05% TWEEN®-20 in blocking buffer) was added to each well and incubated with shaking for 1 h at room temperature. After rinsing three times with wash buffer, 150 μL of Read Buffer T with surfactant (tris-based buffer containing tripropylamine, Meso Scale Diagnostics, R92TC-1) were added to each empty well, and the plate was imaged on a SI 6000 imager (MSD) according to manufacturers' instructions provided for 96- or 384-well plates.

[2] = system: ATXN3 pre-mRNA; test: RT-qPCR Assay to Quantify Exon 4 Skipping in ATXN3 pre-mRNA in Cells; assay type: cell-based; conditions: cells incubated with compound 24 h, 7-point concentration curve, GAPDH control
Experimental: as §1, with “RT-qPCR Assay to Quantify Exon 4 Skipping in ATXN3 pre-mRNA in Cells Test” for “Test”
Cells were thawed and incubated in cell culture media (DMEM, 10% FBS, and 1% antibiotic cocktail) for 72 h. Cells were trypsinized, counted, and re-suspended to a concentration of 100,000 cells/mL in cell culture media. A 100 μL aliquot of the cell suspensions were plated at 10,000 cells per well in the compound containing 96 well microtiter plate and incubated for in a cell culture incubator (37° C., 5% CO2, 100% relative humidity).
After 24 h, media was aspirated from the cells and 50 μL of the RCL2 lysis buffer (10 mM Tris-HCL pH 7.4, 150 mM NaCl, 0.33% IGEPAL® CA-630) was added to each well and incubated at room temperature for 1 min. Chilled nuclease free water (50 μL per well) was added and the plates were immediately transferred on ice. After 1 min on ice, plates were frozen at −80° C. overnight.
Preparation of RT-qPCR Reaction Mixture:
An aliquot of 2 μL/well of the cell lysates was transferred using the liquid handler to the Armadillo 384-Well PCR plate containing 8 μL/well of the RT-qPCR reaction mixture that was prepared as detailed above. The plates were then sealed with MicroAmp™ Optical Adhesive Film followed by spinning down for 1 min and placed in the CFX384 thermocycler (BioRad).
The RT-qPCR was carried out at the following temperatures for the indicated time: • Step 1: 48° C. (30 min) • Step 2: 95° C. (10 min) • Step 3: 95° C. (15 sec) • Step 4: 60° C. (1 min); then, repeated Steps 3 and 4 for a total of 40 cycles.
The percent exon 4 skipping was calculated for each dose of compound treatment using Equations 1 and 2.
Data were fit to a dose response curve and the IC50 was interpolated using XLfit® statistical and curve fitting package.
An IC50 value between >2.0 μM and ≤3.0 μM is indicated by one star (*). […] IC50 value between >0.5 μM and ≤1.0 μM is indicated by four stars (****). An IC50 value ≤0.5 μM is indicated by five stars (*****).

| Structure (SMILES) | IC50 [1] [nM] | IC50 [2] [nM] | IC50, exon 4 skipping in ATXN3 pre-mRNA [2] |
| --- | --- | --- | --- |
| N[C@@H](COC(F)(F)F)Cc1sc2c(NCc3nccs3)cc(Cl)nc2c1Br [Cpd 64, 2-[(2R)-2-amino-3-(trifluoromethoxy)propyl]-3-bromo-5-chloro-N-[(1,3-thiazol-2-yl)methyl]thieno[3,2-b]pyridin-7-amine] | 500 to 1000 | 500 to 1000 |  |
| CC[C@H](N)Cc1sc2c(NCc3cccs3)cc(Cl)nc2c1Br [Cpd 73, 2-[(2S)-2-aminobutyl]-3-bromo-5-chloro-N-[(thiophen-2-yl)methyl]thieno[3,2-b]pyridin-7-amine] | ≤ 500 | ≤ 500 |  |
| N[C@@H](CCF)Cc1sc2c(NCc3cccs3)cc(Cl)nc2c1Br [Cpd 74, 2-[(2S)-2-amino-4-fluorobutyl]-3-bromo-5-chloro-N-[(thiophen-2-yl)methyl]thieno[3,2-b]pyridin-7-amine] | ≤ 500 | ≤ 500 |  |
| N[C@@H](CF)Cc1sc2c(NCc3cccs3)cc(Cl)nc2c1Br [Cpd 76, 2-[(2R)-2-amino-3-fluoropropyl]-3-bromo-5-chloro-N-[(thiophen-2-yl)methyl]thieno[3,2-b]pyridin-7-amine] | ≤ 500 | ≤ 500 |  |
| Cc1c(C[C@@H](N)CF)sc2c(NCc3ccco3)cc(Cl)nc12 [Cpd 81, 2-[(2R)-2-amino-3-fluoropropyl]-5-chloro-N-[(furan-2-yl)methyl]-3-methylthieno[3,2-b]pyridin-7-amine] | ≤ 500 | ≤ 500 |  |
| CC[C@H](N)Cc1sc2c(NCc3cccs3)cc(Cl)nc2c1Cl [Cpd 83, 2-[(2S)-2-aminobutyl]-3,5-dichloro-N-[(thiophen-2-yl)methyl]thieno[3,2-b]pyridin-7-amine] | ≤ 500 | ≤ 500 |  |
| N[C@@H](CF)Cc1sc2c(NCc3cccs3)cc(Cl)nc2c1Cl [Cpd 84, 2-[(2R)-2-amino-3-fluoropropyl]-3,5-dichloro-N-[(thiophen-2-yl)methyl]thieno[3,2-b]pyridin-7-amine] | ≤ 500 | ≤ 500 |  |
| Cc1c(C[C@@H](N)CF)sc2c(NCc3cccs3)cc(Cl)nc12 [Cpd 91, 2-[(2R)-2-amino-3-fluoropropyl]-5-chloro-3-methyl-N-[(thiophen-2-yl)methyl]thieno[3,2-b]pyridin-7-amine] | 1000 to 1500 | 2000 to 3000 |  |
| Cc1c(C[C@@H](N)CCF)sc2c(NCc3cccs3)cc(Cl)nc12 [Cpd 92, 2-[(2S)-2-amino-4-fluorobutyl]-5-chloro-3-methyl-N-[(thiophen-2-yl)methyl]thieno[3,2-b]pyridin-7-amine] | ≤ 500 | ≤ 500 |  |
| N[C@@H](CCF)Cc1sc2c(NCc3ccco3)cc(Cl)nc2c1Cl [Cpd 93, 2-[(2S)-2-amino-4-fluorobutyl]-3,5-dichloro-N-[(furan-2-yl)methyl]thieno[3,2-b]pyridin-7-amine] | ≤ 500 | ≤ 500 |  |
| N[C@@H](CF)Cc1sc2c(NCc3ccco3)cc(Cl)nc2c1Cl [Cpd 94, 2-[(2R)-2-amino-3-fluoropropyl]-3,5-dichloro-N-[(furan-2-yl)methyl]thieno[3,2-b]pyridin-7-amine] | ≤ 500 | ≤ 500 |  |
| Cc1c(C[C@@H](N)CCF)sc2c(NCc3ccco3)cc(Cl)nc12 [Cpd 95, 2-[(2S)-2-amino-4-fluorobutyl]-5-chloro-N-[(furan-2-yl)methyl]-3-methylthieno[3,2-b]pyridin-7-amine] | ≤ 500 | ≤ 500 |  |
| N[C@@H](CCF)Cc1sc2c(NCc3ccco3)cc(Cl)nc2c1Br [Cpd 97, 2-[(2S)-2-amino-4-fluorobutyl]-3-bromo-5-chloro-N-[(furan-2-yl)methyl]thieno[3,2-b]pyridin-7-amine] | ≤ 500 | ≤ 500 |  |
| N#CC[C@H](N)Cc1sc2c(NCc3ccco3)cc(Cl)nc2c1Br [Cpd 103, (3S)-3-amino-4-(3-bromo-5-chloro-7-{[(furan-2-yl)methyl]amino}thieno[3,2-b]pyridin-2-yl)butanenitrile] | ≤ 500 | ≤ 500 |  |
| CSC[C@H](N)Cc1sc2c(NCc3ccco3)cc(Cl)nc2c1C [Cpd 104, 2-[(2R)-2-amino-3-(methylsulfanyl)propyl]-5-chloro-N-[(furan-2-yl)methyl]-3-methylthieno[3,2-b]pyridin-7-amine] | ≤ 500 | ≤ 500 |  |
| Cc1c(C[C@@H](N)CC#N)sc2c(NCc3cccs3)cc(Cl)nc12 [Cpd 105, (3S)-3-amino-4-(5-chloro-3-methyl-7-{[(thiophen-2-yl)methyl]amino}thieno[3,2-b]pyridin-2-yl)butanenitrile] | ≤ 500 | ≤ 500 |  |
| N#CC[C@H](N)Cc1sc2c(NCc3cccs3)cc(Cl)nc2c1Cl [Cpd 106, (3S)-3-amino-4-(3,5-dichloro-7-{[(thiophen-2-yl)methyl]amino}thieno[3,2-b]pyridin-2-yl)butanenitrile] | ≤ 500 | ≤ 500 |  |
| N[C@H](Cc1sc2c(NCc3cccs3)cc(Cl)nc2c1Br)CC(F)F [Cpd 107, 2-[(2S)-2-amino-4,4-difluorobutyl]-3-bromo-5-chloro-N-[(thiophen-2-yl)methyl]thieno[3,2-b]pyridin-7-amine] | 1000 to 1500 |  | inactive |
| Cc1c(C[C@@H](N)CS(C)(=O)=O)sc2c(NCc3ccco3)cc(Cl)nc12 [Cpd 108, 2-[(2R)-2-amino-3-(methanesulfonyl)propyl]-5-chloro-N-[(furan-2-yl)methyl]-3-methylthieno[3,2-b]pyridin-7-amine] | ≤ 500 | ≤ 500 |  |
| C[C@H](N)Cc1sc2c(NCc3ccco3)cc(Cl)nc2c1C#N [Cpd 109, 2-[(2S)-2-aminopropyl]-5-chloro-7-{[(furan-2-yl)methyl]amino}thieno[3,2-b]pyridine-3-carbonitrile] | ≤ 500 | ≤ 500 |  |
| CS(=O)(=O)C[C@H](N)Cc1sc2c(NCc3ccco3)cc(Cl)nc2c1Cl [Cpd 113, 2-[(2R)-2-amino-3-(methanesulfonyl)propyl]-3,5-dichloro-N-[(furan-2-yl)methyl]thieno[3,2-b]pyridin-7-amine] | ≤ 500 | ≤ 500 |  |
| CSC[C@H](N)Cc1sc2c(NCc3ccco3)cc(Cl)nc2c1Cl [Cpd 114, 2-[(2R)-2-amino-3-(methylsulfanyl)propyl]-3,5-dichloro-N-[(furan-2-yl)methyl]thieno[3,2-b]pyridin-7-amine] | ≤ 500 | ≤ 500 |  |
| Cc1c(C[C@@H](N)C(=O)O)sc2c(NCc3ccco3)cc(Cl)nc12 [Cpd 115, 3-(5-chloro-7-{[(furan-2-yl)methyl]amino}-3-methylthieno[3,2-b]pyridin-2-yl)-D-alanine] | ≤ 500 | ≤ 500 |  |

From patent US20240051968A1, “METHODS FOR TREATING SPINOCEREBELLAR ATAXIA TYPE 3” (PTC Therapeutics, Inc., priority 2021, published 2024)
